Experimental data from patent US20080051378A1, “Combinations Comprising Antimuscarinic Agents and Corticosteroids” (priority 2004, published 2008).

Test system: ovoalbumin-sensitized guinea-pig isolated tracheal rings
Assay: Inhibition of the antigen (ovoalbumin)-induced contraction in ovoalbumin-sensitized guinea-pig isolated tracheal rings
Conditions: for CONTRACTILE RESPONSE TO OVOALBUMIN (in mg) (mean ± sem): vehicle 886 ± 108 mg
Description: Male Dunkin-Hartley guinea-pigs (weighing 380-420 g) from Harlan Ibérica (St. Feliu de Codines, Spain) are used. They are housed, with free access to food and water, in rooms kept at 22±2° C. under a 12 hours light-dark cycle until the start of the experiment.
The animals are sensitised by means of two sessions of aerosolization with a solution of 5 mg/ml of ovoalbumin on days zero and 7 of the study. The aerosolization procedure consists of two 30-s nebulisations (Efbe air brush apparatus) with an interval of 5 minutes with animals maintained in a plexiglass box for 10 minutes since the beginning of the procedure.
Between days 14 to 20 from the beginning of the experiment the animals are euthanised and the tracheal tissue is removed. A single tracheal ring is excised and suspended in an organ bath containing Krebs solution. Once attached to a force isometric transducer, it is submitted to a basal resting tension of 1 g, equilibrated with a mixture a 5% CO2 in O2 and maintained at 37° C.
The preparations are allowed to equilibrate for a period of not less than 60 minutes and then the vehicle or the compound(s) to be tested are added to the bath. The corticosteroids (if present) are added first, and, after an incubation period of 45 minutes, the M3 antagonist are subsequently added allowing the system to stand for another 15 minutes. At this moment ovoalbumin is added (at a final concentration in the bath of 10 μg/ml) to elicit the contractile response which is measured immediately.
The contractile responses measured with a force isometric transducer are expressed in mg.

[1] = each compound 10 μM in organ bath, corticosteroid added 45 min before, M3 antagonist 15 min before ovoalbumin 10 μg/ml

SMILES: C[C@H]1C[C@H]2[C@@H]3CCC4=CC(=O)C=C[C@]4(C)[C@@]3(Cl)[C@@H](O)C[C@]2(C)[C@@]1(O)C(=O)CO [BECLOMETHASONE, beclomethasone]
- CONTRACTILE RESPONSE TO OVOALBUMIN (in mg) (mean ± sem) [1]: 778 ± 83 mg
- % INHIBITION OF THE CONTRACTILE RESPONSE (each compound 10 μM in organ bath, corticosteroid added 45 min before, M3 antagonist 15 min before ovoalbumin 10 μg/ml, versus vehicle): 12%
- inhibition of the contractile response, comparison in words (text summary of Table 1 and FIG. 1, 10 μM each): smaller effect

SMILES: CCCC1O[C@@H]2C[C@H]3[C@@H]4CCC5=CC(=O)C=C[C@]5(C)[C@H]4[C@@H](O)C[C@]3(C)[C@]2(C(=O)CO)O1 (some centres unmarked) [BUDESONIDE, budesonide]
- inhibition at 10 µM (Cavia porcellus, each compound 10 μM in organ bath, corticosteroid added 45 min before, M3 antagonist 15 min before ovoalbumin 10 μg/ml, versus vehicle, read-out: % INHIBITION OF THE CONTRACTILE RESPONSE): 51%
- CONTRACTILE RESPONSE TO OVOALBUMIN (in mg) (mean ± sem) [1]: 435 ± 68 mg
